# Data as given in patent US7105553B2, “Thiazolyl amide derivatives” (Bayer Aktiengesellschaft, priority 1999, dated 2006).
row,Structure (SMILES),melting point [°C]
1,CNS(=O)(=O)c1sc(N(C)C(=O)Cc2ccc(-c3ccc(Cl)cc3)cc2)nc1C,186
2,CNS(=O)(=O)c1sc(N(C)C(=O)Cc2ccc(-c3ccccc3Cl)cc2)nc1C,128
3,Cc1nc(N(C)C(=O)Cc2ccc(-c3cccc(N)c3)cc2)sc1S(N)(=O)=O,209
4,Cc1nc(N(C)C(=O)Cc2ccc(-c3ccccc3)cc2)sc1S(=O)(=O)NCCO,167
5,Cc1nc(N(C)C(=O)Cc2ccc(-c3ncccc3C(F)(F)F)cc2)sc1S(N)(=O)=O,221
6,Cc1nc(N(C)C(=O)Cc2ccc(-c3cncnc3)cc2)sc1S(N)(=O)=O,234
7,Cc1nc(N(C)C(=O)Cc2ccc(-c3ncccc3F)cc2)sc1S(N)(=O)=O,218
8,Cc1nc(N(C)C(=O)Cc2ccc(-c3ncccc3C(F)(F)F)cc2)sc1S(N)(=O)=O.Cl,225
9,CNS(=O)(=O)c1sc(N(C)C(=O)Cc2ccc(-c3ncccc3O)cc2)nc1C,225
10,Cc1nc(N(C)C(=O)Cc2ccc(-c3ncccc3F)cc2)sc1S(N)(=O)=O.Cl,206
11,CC(=O)Nc1cccc(-c2ccc(CC(=O)N(C)c3nc(C)c(S(N)(=O)=O)s3)cc2)c1,234
12,Cc1nc(N(C)C(=O)Cc2ccc(-c3ccccc3)cc2)sc1S(=O)(=O)NCCO[Si](C)(C)C(C)(C)C,128
13,Cc1nc(N(C)C(=O)Cc2ccc(-c3cnccn3)cc2)sc1S(N)(=O)=O,217
14,CNS(=O)(=O)c1sc(N(C)C(=O)Cc2ccc(-c3cnccn3)cc2)nc1C,187
15,Cc1nc(N(C)C(=O)Cc2ccc(-c3ccccc3C(F)(F)F)cc2)sc1S(=O)(=O)NCCNC(=O)OC(C)(C)C,156
16,COCCN(C(=O)Cc1ccc(-c2cc(F)ccc2OC)cc1)c1nc(C)c(S(N)(=O)=O)s1,199
17,Cc1nc(N(CCc2ccncc2)C(=O)Cc2ccc(-c3ccccc3)cc2)sc1S(N)(=O)=O,204
18,COCCCN(C(=O)Cc1ccc(-c2ccccc2)cc1)c1nc(C)c(S(N)(=O)=O)s1,148
19,CCOc1ccc(CC(=O)N(C)c2nc(C)c(S(=O)(=O)NC)s2)cc1,157
20,Cc1nc(N(C)C(=O)Cc2ccc(-c3ccccc3)cc2)sc1S(=O)(=O)NCCOC(=O)CNC(=O)OC(C)(C)C,159
21,CCOc1ccc(CC(=O)N(CCN(C)C)c2nc(C)c(S(=O)(=O)NC)s2)cc1,153
22,Cc1nc(N(C)C(=O)Cc2ccc(-c3ccccn3)cc2)sc1S(=O)(=O)NCCO[Si](C)(C)C(C)(C)C,130

row,Structure (SMILES),melting point [°C]
1,Cc1nc(N(C)C(=O)Cc2ccc(-c3ccccn3)cc2)sc1S(=O)(=O)NCCO,175
2,CNS(=O)(=O)c1sc(NC(=O)Cc2ccc(-c3ccccc3)cc2)nc1C,133
3,Cc1nc(N(C(=O)Cc2ccc(-c3ccccc3)cc2)C2CC2)sc1S(N)(=O)=O,179
4,CNS(=O)(=O)c1sc(N(C(=O)Cc2ccc(-c3ccccc3)cc2)C2CC2)nc1C,202
5,COCCN(C(=O)Cc1ccc(-c2ccccc2)cc1)c1nc(C)c(S(N)(=O)=O)s1,163
6,CNS(=O)(=O)c1sc(N(C)C(=O)Cc2ccc(-c3cccc(Cl)c3)cc2)nc1C,187
7,CCCN(C(=O)Cc1ccc(-c2ccccc2)cc1)c1nc(C)c(S(N)(=O)=O)s1,154
8,CNS(=O)(=O)c1sc(N(Cc2cccnc2)C(=O)Cc2ccc(-c3ccccc3)cc2)nc1C,161
9,CNS(=O)(=O)c1sc(N(CCCN2CCCC2=O)C(=O)Cc2ccc(-c3ccccc3)cc2)nc1C,158
10,CONS(=O)(=O)c1sc(N(C)C(=O)Cc2ccc(-c3ccccc3)cc2)nc1C,129
11,CCOCCNS(=O)(=O)c1sc(N(C)C(=O)Cc2ccc(-c3ccccc3)cc2)nc1C,105 to 106
12,COCCCNS(=O)(=O)c1sc(N(C)C(=O)Cc2ccc(-c3ccccc3)cc2)nc1C,142 to 143
13,CCOCCCNS(=O)(=O)c1sc(N(C)C(=O)Cc2ccc(-c3ccccc3)cc2)nc1C,139 to 140
14,CNS(=O)(=O)c1sc(N(C)C(=O)Cc2ccc(-c3cc(C)cc(C)c3)cc2)nc1C,170
15,CNS(=O)(=O)c1sc(N(C)C(=O)Cc2ccc(-c3ccccc3OC(F)(F)F)cc2)nc1C,190
16,CNS(=O)(=O)c1sc(N(C)C(=O)Cc2ccc(-c3cccc([N+](=O)[O-])c3)cc2)nc1C,201
17,CCOCCCNS(=O)(=O)c1sc(N(CCCOCC)C(=O)Cc2ccc(-c3cccc(OC)c3)cc2)nc1C,74 to 75
18,CCOCCCNS(=O)(=O)c1sc(N(C)C(=O)Cc2ccc(-c3cccc(OC)c3)cc2)nc1C,125 to 127
19,CNS(=O)(=O)c1sc(N(C)C(=O)Cc2ccc(-c3cccc(OC(F)(F)F)c3)cc2)nc1C,156
20,Cc1nc(N(C)C(=O)Cc2ccc(-c3cccnc3)cc2)sc1S(N)(=O)=O,208
21,CNS(=O)(=O)c1sc(N(C)C(=O)Cc2ccc(-c3ccccc3)cc2)nc1C,180
22,Cc1nc(N(C)C(=O)Cc2ccc(-c3cccnc3)cc2)sc1S(N)(=O)=O.Cl,177

row,Structure (SMILES),melting point [°C]
1,CNS(=O)(=O)c1sc(N(C)C(=O)Cc2ccc(-c3cccnc3)cc2)nc1C,200
2,CNS(=O)(=O)c1sc(N(C)C(=O)Cc2ccc(-c3cccnc3)cc2)nc1C.Cl,270
3,CCOCCNS(=O)(=O)c1sc(N(C)C(=O)Cc2ccc(OCC)cc2)nc1C,125 to 127
4,CNS(=O)(=O)c1sc(N(C)C(=O)Cc2ccc(Br)cc2)nc1C,168
5,CNS(=O)(=O)c1sc(N(C)C(=O)C(C)c2ccc(-c3ccccc3)cc2)nc1C (stereo not drawn),170 to 172
6,CCOCCOCCOCCN(C(=O)Cc1ccc(-c2ccccc2)cc1)c1nc(C)c(S(N)(=O)=O)s1,94
7,CNS(=O)(=O)c1sc(N(CCNC(=O)OC(C)(C)C)C(=O)Cc2ccc(-c3ccccc3)cc2)nc1C,188
8,CCN(C(=O)Cc1ccc(-c2ccccc2)cc1)c1nc(C)c(S(=O)(=O)NCC(F)(F)F)s1,152
9,Cc1nc(N(C)C(=O)Cc2ccc(-c3ccccc3)cc2)sc1S(=O)(=O)NCC(F)(F)F,216
10,CNS(=O)(=O)c1sc(N(C)C(=O)Cc2ccc(-c3cccc(OC)c3)cc2)nc1C,154
11,CCCN(C(=O)Cc1ccc(-c2ccccc2)cc1)c1nc(C)c(S(=O)(=O)NCC(F)(F)F)s1,108
12,Cc1nc(N(C)C(=O)Cc2ccc(-c3cccc(O[Si](C)(C)C(C)(C)C)c3)cc2)sc1S(N)(=O)=O,161
13,CNS(=O)(=O)c1sc(N(C)C(=O)Cc2ccc(-c3ncccc3N)cc2)nc1C,80
14,CNS(=O)(=O)c1sc(N(C)C(=O)Cc2ccc(-c3cncc(C#N)c3)cc2)nc1C,130
15,CNS(=O)(=O)c1sc(N(C)C(=O)Cc2ccc(-c3cnccc3C)cc2)nc1C,113
16,CNS(=O)(=O)c1sc(N(C)C(=O)Cc2ccc(-c3ccccc3C(F)(F)F)cc2)nc1C,202
17,CNS(=O)(=O)c1sc(N(C)C(=O)Cc2ccc(-c3ccccc3C)cc2)nc1C,167
18,CNS(=O)(=O)c1sc(N(C)C(=O)Cc2ccc(-c3cccc(F)c3)cc2)nc1C,190
19,COc1ccc(F)cc1-c1ccc(CC(=O)N(C)c2nc(C)c(S(N)(=O)=O)s2)cc1,219
20,CCCCOc1ccc(CC(=O)N(C)c2nc(C)c(S(=O)(=O)NCCOCC)s2)cc1,68 to 70
21,CCOc1ccc(CC(=O)N(Cc2ccncc2)c2nc(C)c(S(N)(=O)=O)s2)cc1,122
22,Cc1nc(N(Cc2ccccn2)C(=O)Cc2ccc(-c3ccccc3)cc2)sc1S(N)(=O)=O,205

row,Structure (SMILES),melting point [°C]
1,Cc1nc(N(Cc2cccnc2)C(=O)Cc2ccc(-c3ccccc3)cc2)sc1S(N)(=O)=O,189
2,CNS(=O)(=O)c1sc(N(C)C(=O)Cc2ccc(-c3ccccc3OC)cc2)nc1C,192
3,Cc1nc(N(Cc2ccncc2)C(=O)Cc2ccc(-c3ccccc3)cc2)sc1S(N)(=O)=O,130
4,Cc1nc(N(C)C(=O)Cc2ccc(-c3cccc([N+](=O)[O-])c3)cc2)sc1S(N)(=O)=O,202
5,CNS(=O)(=O)c1sc(N(C)C(=O)Cc2ccc(-c3cccc4c3oc3ccccc34)cc2)nc1C,109
6,Cc1ccncc1-c1ccc(CC(=O)N(C)c2nc(C)c(S(N)(=O)=O)s2)cc1,204
7,Cc1cnc(N)c(-c2ccc(CC(=O)N(C)c3nc(C)c(S(N)(=O)=O)s3)cc2)c1,183
8,Cc1nc(N(C)C(=O)Cc2ccc(-c3ncccc3N)cc2)sc1S(N)(=O)=O.Cl,264
9,Cc1nc(N(C)C(=O)Cc2ccc(-c3ccccc3)cc2)sc1S(=O)(=O)NCCN(C)C(=O)OC(C)(C)C,175
10,Cc1nc(N(C)C(=O)Cc2ccc(-c3cccc(F)c3F)cc2)sc1S(N)(=O)=O,202
11,Cc1nc(N(C)C(=O)Cc2ccc(-c3c(F)cccc3F)cc2)sc1S(N)(=O)=O,215
12,Cc1nc(N(C)C(=O)Cc2ccc(-c3ccccc3)cc2)sc1S(=O)(=O)NCCN,138
13,CNS(=O)(=O)c1sc(N(C)C(=O)Cc2ccc(-c3cncnc3)cc2)nc1C,193
14,Cc1nc(N(CCc2ccccn2)C(=O)Cc2ccc(-c3ccccc3)cc2)sc1S(N)(=O)=O,136
15,Cc1nc(N(CC2CC2)C(=O)Cc2ccc(-c3ccccc3)cc2)sc1S(N)(=O)=O,161
16,C=CCN(C(=O)Cc1ccc(-c2ccccc2)cc1)c1nc(C)c(S(N)(=O)=O)s1,117
17,Cc1nc(N(Cc2ccccc2)C(=O)Cc2ccc(-c3ccccc3)cc2)sc1S(N)(=O)=O,154
18,Cc1nc(N(CCc2ccccc2)C(=O)Cc2ccc(-c3ccccc3)cc2)sc1S(N)(=O)=O,174
19,Cc1nc(N(CC2CCCO2)C(=O)Cc2ccc(-c3ccccc3)cc2)sc1S(N)(=O)=O (stereo not drawn),159
20,Cc1nc(N(CCCN2CCCC2=O)C(=O)Cc2ccc(-c3ccccc3)cc2)sc1S(N)(=O)=O,203
21,Cc1nc(N(CCN2CCCC2=O)C(=O)Cc2ccc(-c3ccccc3)cc2)sc1S(N)(=O)=O,202
